Values of other authors, collected in US20210267985A1, “COMPOSITIONS AND METHODS FOR INDUCING ENHANCED BRAIN FUNCTION” (priority 2020, published 2021).

Conditions: in vivo

SMILES: Cn1c(=O)c2c(ncn2C)n(C)c1=O [caffeine]
- half-life: 4 to 6 h
